The test system of one data set is IFN-I response. Briefly: IFN-I response in senescent and 3X human fibroblasts (RT-qPCR, ELISA, immunoblotting). The data set is classed as cell-based. The settings on record: LF1 and IMR90, 5 μM. An excerpt: (§1) To obtain replicatively senescent (RS) cells, LF1 cultures were serially propagated until proliferation ceased. At each passage, after reaching 80% confluence cells were trypsinized and diluted 1:4. […] In early passage cultures, the time between passages is constant at approximately 3 days. […] At this point, after reaching 80% confluence, the cells were replated at 1:2 dilution, and this time was designated as the last passage (point A in FIG. 2A). […] Under this experimental regimen, the majority of the cells in the culture enter senescence within a 3-4 weeks window centered roughly around the time of last passage (grey bar in FIG. 2A). At point B (4 weeks), the cultures were trypsinized and replated as described^60 to eliminate a small fraction of persisting contact-inhibited cells. Cultures were again replated at point C (8 weeks).
Oncogene-induced senescence (OIS) was elicited by infecting proliferating LF1 cells with pLenti CMV RasV12 Neo (Addgene plasmid #22259). Generation of lentiviral particles and the infection procedure are described below. At the end of the infection, cells were reseeded at 15-20% confluency and selected with G418 (250 μg/ml) maintained continuously until the end of the experiment Medium was changed every 3 days until the cultures were harvested at the indicated time points. Stress-induced premature senescence (SIPS) was elicited by […] irradiation with 20 Gy given at a rate of 87 cGy/min in one fraction using a cesium-137 gamma source (Nordion Gammacell 40). Cells were 15-20% confluent at the time of irradiation. Medium was changed immediately after irradiation, and at 3-day intervals thereafter. […]
The ABI ViiA 7 instrument (Applied Biosystems) was used for all experiments. qPCR of DNA was performed using the TaqMan system (Applied Biosystems) as described by Coufal et al. (2009).^64 […] of purified genomic DNA was used with the indicated primers (see Table 1). […] Effectiveness of the DNase digestion was assessed using controls that omitted the RT enzyme. […]
On the technique in general: Real-time PCR tracks product formation cycle by cycle.

The test system of another data set is SASP response. Briefly: Senescence entry and SASP gene expression in human fibroblasts (RT-qPCR). The data set is classed as cell-based. The settings on record: LF1, 5 μM.
Source text: as §1
(§2) The ABI ViiA 7 instrument (Applied Biosystems) was used for all experiments. qPCR of DNA was performed using the TaqMan system (Applied Biosystems) as described by Coufal et al. (2009).^64 […] of purified genomic DNA was used with the indicated primers (see Table 1). Reverse transcription qPCR (RT-qPCR) of RNA was performed using the SYBR Green system (Applied Biosystems). […] Effectiveness of the DNase digestion was assessed using controls that omitted the RT enzyme.

Another data set relates to L1HS sequences. The data set is described as follows: L1 sequence abundance (copy number) by TaqMan qPCR in senescent fibroblasts. The data set is classed as cell-based, human. The settings on record: LF1, IMR90, W138 fibroblasts, 5 μM in medium, 4 months in senescence. How it is done:
as §2, with “Biosystems). Polyadenylated RNA was used in all experiments assessing transcription of L1 elements, and total RNA was used for all other genes. Total RNA was harvested using the Trizol reagent (Invitrogen). Poly(A) RNA was isolated from total RNA using the NEBNext Poly(A) mRNA Magnetic Isolation Module (New England Biolabs).” for “Biosystems).”
Primer sets 1 to 5 (Table 1, amplicons A to E in FIG. 1B) to human L1 were designed to preferentially amplify elements of the human-specific L1 HS and evolutionarily recent primate-specific L1 PA(2-6) subfamilies, as follows. […] Sequences of primers corresponding to a consensus of all the murine IFN alpha family genes, as well as to the IFNB1 gene, were obtained from the publication by Gautier et al.^71 For quantifying relative L1 genomic copy number (human cells), the TaqMan multiplex method developed by Coufal et al. (2009)^72 was used. […]

For data set [1], the system named is human LINE-1. Briefly: Human LINE-1 retrotransposition assay, related experiments with islatravir (pYX017, HeLa cells, Tables 12 and 13). The settings on record: for IC50: Homo sapiens. The data set is classed as cell-based. How it is done:
In related experiments, islatravir and other compounds were tested for inhibition of retrotransposition activity of human LINE-1 in HeLa cells according to the following procedure.
HeLa cervical cancer cells were cultivated at 37° C. in a humidified 5% CO2 incubator in Dulbecco's Modified Eagle's Medium (DMEM)—high glucose, with 4500 mg/L glucose, L-glutamine, sodium pyruvate and sodium bicarbonate (Sigma), supplemented with 10% of heat inactivated fetal bovine serum (Thermo Fisher).
Assays were performed using reporter plasmid pYX017 as described (Xie, et al., 2011) with several modifications. The reporter assay was performed in 96-well white optical bottom plates. HeLa cells were seeded in wells 24 h prior to transfection and compound treatment so that cells were approximately 30% confluent on the day of transfection. Different cell plating densities were tested and a density of 2×10^3 cells was determined to be optimal.
Compounds were resuspended in DMSO. Serial dilutions (1:3) were prepared in DMSO. Medium containing different concentrations of the compounds were prepared by adding 2 μl of the compound dilution to 1 ml of the culture medium. The final concentration of DMSO in the medium was 0.2%.
FuGENE® HD transfection reagent (Promega, E2311, Lot 382574 and Lot 397842) was used to transfect the plasmids into the cells. The transfection reagent: DNA mixture was prepared in OpiMEM (Thermo Fisher) according to manufacturer's instructions. Different ratios of transfection reagent to DNA were tested and a ratio of 3:1 was determined to be optimal. Culture medium was removed from the cells and discarded. The transfection reagent: DNA mixture (5 μl) was mixed with the compound containing medium (100 μl/well) and this was added onto the cells of each well. Cells were incubated at 37° C./5% CO2 for different incubation time. A 72 h incubation time was determined to be optimal.
Luciferase reporter activity was quantified with the Dual-Luciferase® Reporter Assay System (Promega) according to manufacturer's instructions for multiwell plates except that cells were lysed directly on the multiwell plate with 30 μl of the passive lysis buffer (PLB) for 20 min at room temperature, with gentle shaking to ensure complete cell lysis.
Firefly and Renilla luciferase signals were measured using a SpectraMax i3x Multi-Mode Microplate Reader. Integration times of 100 ms and 10 ms were used to measure the Firefly and Renilla signals respectively. Relative L1 activity is calculated as Firefly/Renilla *1000 or Firefly/Renilla *10,000. Dose response inhibition data were fit to a four parameter logistic equation using non-linear regression (using Graphpad Prism 8), to determine IC50 values for each inhibitor.

Data set [2] relates to human LINE-1. Briefly: Islatravir Inhibitory Quotient (IQ) estimate for human LINE-1 in PBMC and brain. The settings on record: for Human LINE-1 IQ C168 hr, PBMC, single dose / Human LINE-1 IQ Cavg (ss), PBMC, q.d.: EFdA-TP EC50 = 316 nM; for Human LINE-1 IQ C168 hr, Brain, single dose / Human LINE-1 IQ Cavg (ss), Brain, q.d.: assume Br./plasma = 0.25.
For the next data set, the system named is HIV WT. As to conditions: Grobler et al. 2019; read-out: HIV WT IC50; cited from earlier work.
For data set [3] the following is noted: cited from earlier work.
For data set [4] the following is noted: human plasma PK, oral dose 0.5-30 mg; cited from earlier work.
For data set [5] the following is noted: Table 13 Comparative Studies; cited from earlier work.
Where [6] appears, read: daily dose of 2 mg, steady state.

Molecules are shown by their SMILES. Where two headings read alike, the source gives them in different places.

As to `Nc1ncnc2c1ncn2CCOCP(=O)(O)O` [Adefovir], the “interferon gene expression (IFN-α, IFN-β1) in senescent cells” value in the data set on IFN-I response is listed as “significantly reduced”. The “SASP gene expression (IL-6, MMP3) in senescent cells” value in the data set with SASP response is listed as “significantly decreased”. Also, the “senescence-induced increase of L1 copy number” value in the data set on L1HS sequences is “significantly prevented this increase”.
For the compound `C#C[C@]1(CO)O[C@@H](n2cnc3c(N)nc(F)nc32)C[C@@H]1O` [Islatravir, 2′-deoxy-4′-ethynyl-2-fluoroadenosine], the “human LINE-1 inhibitor activity compared to the other reverse transcriptase inhibitory drugs tested” value in the data set with human LINE-1 [1] (HeLa cells) is listed as “unexpectedly better human LINE-1 inhibitor activity”. The IC50 (usually the concentration that inhibits the measured activity by half) with human LINE-1 [1] (HeLa, Table 13 Comparative Studies, read-out: Human Line-1 IC50) was 5 nM; in the data set on human LINE-1 [1] (HeLa, see Table 12, read-out: in vitro IC50 for human LINE-1 in cell-based assay) it was 1.29 nM; in the data set with human LINE-1 [1] (HeLa cells, pYX017, 72 h, n = 3, read-out: Human LINE-1 IC50, Average), 1.29 nM; with human LINE-1 [1] (HeLa cells, pYX017, 72 h, read-out: Human LINE-1 IC50, Exp. 3), 1.4 nM; with human LINE-1 [1] (HeLa cells, pYX017, 72 h, read-out: Human LINE-1 IC50, Exp.2), 1.18 nM; with HIV WT, 0.2 nM. Besides, the “Human LINE-1 IQ C168 hr, PBMC, single dose” value is recorded as 1.84 in the data set on human LINE-1 [2] (Dose 0.5 mg); 2.61 in the data set on human LINE-1 [2] (Dose 1 mg); 3.00 in the data set on human LINE-1 [2] (Dose 2 mg); 15.64 in the data set on human LINE-1 [2] (Dose 10 mg); 76.88 in the data set on human LINE-1 [2] (Dose 30 mg). The “Human LINE-1 IQ Cavg (ss), PBMC, q.d.” value in the data set with human LINE-1 [2] (Dose 0.5 mg) was 23.41; with human LINE-1 [2] (Dose 1 mg), 39.79; in the data set with human LINE-1 [2] (Dose 2 mg), 50.54; in the data set with human LINE-1 [2] (Dose 10 mg) it was 295.15; with human LINE-1 [2] (Dose 30 mg) it was 915.31. Moreover, the “Human LINE-1 IQ C168 hr, Brain, single dose” value in the data set with human LINE-1 [2] (Dose 0.5 mg) is recorded as 0.46; in the data set on human LINE-1 [2] (Dose 1 mg), 0.66; with human LINE-1 [2] (Dose 2 mg) it was 0.75; in the data set with human LINE-1 [2] (Dose 10 mg) it was 3.92; in the data set with human LINE-1 [2] (Dose 30 mg), 19.22. In addition, the “Human LINE-1 IQ Cavg (ss), Brain, q.d.” value is recorded as 5.85 with human LINE-1 [2] (Dose 0.5 mg); 9.95 in the data set with human LINE-1 [2] (Dose 1 mg); 12.64 in the data set with human LINE-1 [2] (Dose 2 mg); 73.79 in the data set on human LINE-1 [2] (Dose 10 mg); 228.83 in the data set with human LINE-1 [2] (Dose 30 mg). Moreover, the “IQ for human LINE-1 in PBMCs” value with human LINE-1 [2] (setting [6]) is 51. For the same compound, the “IQ for human LINE-1 in brain” value in the data set with human LINE-1 [2] (setting [6]) is on record as 13. Besides, the “Plasma-Brain Kapp” value in data set [3] (non-human primate) is on record as 0.25. Also, in data set [3] (single oral doses, Rhesus macaque), the “blood brain barrier penetration” value is “penetrated the blood brain barrier (BBB)”. Further, in [4], the oral clearance was 31 to 45 L/h. The huCSF/Plasma in data set [5] is 0.25.
